pIC50: −log10 of the molar value. Where two headings read alike, the source gives them in different places.
Tests used:
Recombinant human FGFR2 = Recombinant human FGFR2 (Homo sapiens, UniProt P21802); assay: Transcreener Kinase Assay of FGFR2; type: biochemical
SNU-16 = assay: Cellular Proliferation Assay (Cell Counting Kit-8), SNU-16; type: cell-based; conditions: Homo sapiens; SNU-16 cells, 72 hours
Method in brief: (§1)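 Seeding per well: KG-1 30000, SNU-16 5000, RT-112 1000 cells. After 24 h an 8-point series (working dilutions 10 to 0.004 μM in 5% DMSO) was added for 72 h at 37 °C, 5% CO2. CCK-8 OD450 after 1 h, corrected for media background and normalised to untreated cells, gave IC50.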

RT-112 = assay: Cellular Proliferation Assay (Cell Counting Kit-8), RT-112; type: cell-based; conditions: Homo sapiens; RT-112 cells, 72 hours
Method in brief: as §1

KG-1 = assay: Cellular Proliferation Assay (Cell Counting Kit-8), KG-1; type: cell-based; conditions: Homo sapiens; KG-1 cells, 72 hours; read-out: KG1 IC50
Method in brief: as §1

Recombinant human FGFR1 = Recombinant human FGFR1 (Homo sapiens, UniProt P11362); assay: Transcreener Kinase Assay of FGFR1; type: biochemical
Recombinant human FGFR1, sequence (P11362 22-822): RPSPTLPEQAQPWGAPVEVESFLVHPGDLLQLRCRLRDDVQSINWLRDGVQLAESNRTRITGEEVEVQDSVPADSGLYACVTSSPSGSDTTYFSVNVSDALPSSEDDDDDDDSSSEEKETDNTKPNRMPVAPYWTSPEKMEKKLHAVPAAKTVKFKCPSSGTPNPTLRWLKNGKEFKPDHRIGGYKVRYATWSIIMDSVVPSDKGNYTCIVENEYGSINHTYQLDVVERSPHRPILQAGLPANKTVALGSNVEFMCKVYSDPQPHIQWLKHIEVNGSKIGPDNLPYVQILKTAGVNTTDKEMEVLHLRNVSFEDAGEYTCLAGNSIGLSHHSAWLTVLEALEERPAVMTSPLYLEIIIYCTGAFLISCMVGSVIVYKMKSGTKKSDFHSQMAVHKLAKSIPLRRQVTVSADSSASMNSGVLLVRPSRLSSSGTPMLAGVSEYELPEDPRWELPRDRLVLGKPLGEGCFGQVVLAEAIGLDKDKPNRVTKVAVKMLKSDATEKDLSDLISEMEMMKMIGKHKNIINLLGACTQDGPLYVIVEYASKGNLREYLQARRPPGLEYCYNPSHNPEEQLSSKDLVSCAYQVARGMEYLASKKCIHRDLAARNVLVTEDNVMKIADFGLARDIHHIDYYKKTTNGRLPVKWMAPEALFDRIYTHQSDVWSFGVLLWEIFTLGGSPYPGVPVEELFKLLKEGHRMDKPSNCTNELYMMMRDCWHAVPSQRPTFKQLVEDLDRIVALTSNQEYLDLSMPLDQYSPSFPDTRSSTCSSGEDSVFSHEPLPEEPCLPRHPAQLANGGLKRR
Method in brief: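 Recombinant human FGFR1 was reacted with Poly E4Y substrate and ATP for 45 min at 28 °C, with compounds at 1 to 0.0005 µM in 1% DMSO final. Inhibition is relative to the DMSO control, with IC50 from a curve fit.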

FGFR3 kinase = FGFR3 kinase (Homo sapiens, UniProt P22607); assay: Z-Lyte Kinase Assay of FGFR3; type: biochemical
FGFR3 kinase, sequence (P22607 23-806): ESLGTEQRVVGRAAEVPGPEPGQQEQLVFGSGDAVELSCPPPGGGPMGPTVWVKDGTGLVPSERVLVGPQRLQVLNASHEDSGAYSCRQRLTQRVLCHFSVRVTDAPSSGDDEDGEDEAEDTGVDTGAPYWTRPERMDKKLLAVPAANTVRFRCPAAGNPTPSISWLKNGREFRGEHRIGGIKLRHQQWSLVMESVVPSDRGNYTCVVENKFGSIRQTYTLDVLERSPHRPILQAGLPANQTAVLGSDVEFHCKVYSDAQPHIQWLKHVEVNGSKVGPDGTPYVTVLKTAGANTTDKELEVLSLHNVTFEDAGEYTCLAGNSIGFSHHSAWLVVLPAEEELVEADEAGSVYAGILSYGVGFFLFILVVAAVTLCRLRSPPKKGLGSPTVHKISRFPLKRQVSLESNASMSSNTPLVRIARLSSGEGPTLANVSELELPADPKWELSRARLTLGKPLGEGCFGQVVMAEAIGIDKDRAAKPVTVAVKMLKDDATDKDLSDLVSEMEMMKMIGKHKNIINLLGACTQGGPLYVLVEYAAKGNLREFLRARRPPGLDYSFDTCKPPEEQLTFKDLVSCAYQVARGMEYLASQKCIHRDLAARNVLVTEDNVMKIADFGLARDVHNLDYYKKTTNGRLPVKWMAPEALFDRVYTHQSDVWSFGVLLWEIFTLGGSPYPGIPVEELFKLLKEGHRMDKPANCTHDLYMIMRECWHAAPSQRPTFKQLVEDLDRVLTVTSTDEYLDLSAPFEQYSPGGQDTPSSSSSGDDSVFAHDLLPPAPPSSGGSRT
Method in brief: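 Z-LYTE FRET assay, kinase 0.7 μg/ml with Tyr 4 peptide 4 μM (P/K solution), ATP diluted to 300 uM in 1.33× buffer; compound final 1 to 0.00046 μM, 2% DMSO.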

Recombinant human FGFR2, sequence (P21802 22-821): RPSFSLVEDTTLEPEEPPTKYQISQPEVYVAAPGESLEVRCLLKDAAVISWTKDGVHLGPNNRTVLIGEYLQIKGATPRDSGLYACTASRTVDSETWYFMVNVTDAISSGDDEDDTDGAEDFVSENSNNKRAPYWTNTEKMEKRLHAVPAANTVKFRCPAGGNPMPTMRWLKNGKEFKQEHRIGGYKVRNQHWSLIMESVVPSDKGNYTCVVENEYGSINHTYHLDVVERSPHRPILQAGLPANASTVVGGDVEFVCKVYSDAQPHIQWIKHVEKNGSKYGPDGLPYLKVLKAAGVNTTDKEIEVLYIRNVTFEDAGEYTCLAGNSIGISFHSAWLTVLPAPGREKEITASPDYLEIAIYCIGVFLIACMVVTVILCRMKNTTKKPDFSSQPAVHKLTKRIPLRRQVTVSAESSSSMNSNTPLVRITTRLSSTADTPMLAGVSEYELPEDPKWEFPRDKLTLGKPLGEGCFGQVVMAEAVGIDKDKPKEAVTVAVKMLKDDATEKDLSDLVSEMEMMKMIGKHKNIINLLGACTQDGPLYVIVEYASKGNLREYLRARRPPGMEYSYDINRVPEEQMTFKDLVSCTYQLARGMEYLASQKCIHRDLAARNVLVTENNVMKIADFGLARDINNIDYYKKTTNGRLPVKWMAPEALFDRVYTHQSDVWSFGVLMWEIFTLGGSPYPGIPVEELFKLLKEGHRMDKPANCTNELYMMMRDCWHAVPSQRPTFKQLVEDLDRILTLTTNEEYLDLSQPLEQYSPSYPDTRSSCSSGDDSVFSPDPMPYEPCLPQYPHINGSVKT

Row | Compound | pIC50 (Recombinant human FGFR2; read-out: FGFR2 (FP) IC50) | pIC50 (SNU-16) | pIC50 (RT-112) | pIC50 (KG-1) | pIC50 (Recombinant human FGFR1; read-out: FGFR1 (FP) IC50) | pIC50 (FGFR3 kinase) | pIC50 (Recombinant human FGFR2; FP) | pIC50 (Recombinant human FGFR1; FP) | pIC50 (FGFR3 kinase; Z-lyte)
1 | CCN1[C@H](C)CN(c2ccc(Nc3ncc(CCc4cc(C(=O)NC)cc(OC)c4Cl)cn3)cn2)C[C@@H]1C [Compound 159] | 7.96 | 8.22 | 7.68 | 7.59 | 7.64 | 8.00 |  |  | 
2 | CCCN1CC(c2ccc(Nc3ncc(OCc4cc(C(=O)NC)cc(OC)c4F)cn3)cc2)C1 [Compound 240] | 7.64 | 7.41 | 7.25 | 7.64 | 7.47 | 7.64 |  |  | 
3 | CCN1CCc2cc(Nc3ncc(OCc4cc(C(=O)NC)cc(OC)c4F)cn3)ccc21 [Compound 224] | 7.57 | 7.25 | 6.63 | 7.20 | 7.19 | 7.25 |  |  | 
4 | CNC(=O)c1cc(COc2cnc(Nc3ccc(N4C[C@@H](C)N(C)[C@@H](C)C4)cc3)nc2)c(F)c(OC)c1 [Compound 267] | 8.22 | 7.77 | 7.48 | 7.55 | 8.22 | 8.10 |  |  | 
5 | CNC(=O)c1cc(COc2cnc(Nc3ccc(N4C[C@@H](C)N[C@@H](C)C4)c(OC)c3)nc2)c(F)c(OC)c1 [Compound 282] |  | 8.30 | 8.30 | 7.34 |  |  | 8.05 | 7.74 | 8.15
6 | C#Cc1cccc(Nc2ncc(OCc3cc(C(=O)NC)cc(OC)c3F)cn2)c1 [Compound 210] | 7.89 | 6.94 | 6.52 | 6.78 | 7.62 | 6.75 |  |  | 
7 | CNC(=O)c1cc(CCc2cnc(Nc3ccc(NC[C@@H](C)N)cc3)nc2)c(Cl)c(OC)c1 [Compound 92] | 8.10 | 7.49 | 7.06 | 7.05 | 8.10 | 8.00 |  |  | 
